# Experimental data reported in US9572343B2, “Active compound combinations” (BAYER CROPSCIENCE AG, priority 2012, dated 2017).
# Where two headings read alike, the source gives them in different places.
# How the values were obtained:
# Format in all cases: in vivo
# Uromyces appendiculatus = experiment: Uromyces test (beans)/preventive; conditions: for pest or weed control at 2 ppm: application rate 2 ppm a.i.; for pest or weed control at 0.5 ppm: application rate 0.5 ppm a.i.
# Experimental: (§1) Solvent: 24.5 parts by weight of acetone • 24.5 parts by weight of dimethylacetamide
# (§2) Emulsifier: 1 part by weight of alkylaryl polyglycol ether
# (§3) To produce a suitable preparation of active compound, 1 part by weight of active compound is mixed with the stated amounts of solvent and emulsifier, and the concentrate is diluted with water to the desired concentration.
# To test for preventive activity, young plants are sprayed with the preparation of active compound at the stated rate of application. After the spray coating has dried on, the plants are inoculated with an aqueous spore suspension of the causal agent of bean rust (Uromyces appendiculatus) and then remain for 1 day in an incubation cabinet at approximately 20° C. and a relative atmospheric humidity of 100%.
# The plants are then placed in a greenhouse at approximately 21° C. and a relative atmospheric humidity of approximately 90%.
# The test is evaluated 10 days after the inoculation. 0% means an efficacy which corresponds to that of the untreated control, while an efficacy of 100% means that no disease is observed.
# [1] = test system: Blumeria graminis f.sp. hordei; experiment: Blumeria test (barley)/preventive; conditions: Table B1
# Experimental: (§4) Solvent: 49 parts by weight of N,N-dimethylacetamide Emulsifier: 1 part by weight of alkylaryl polyglycol ether To produce a suitable preparation of active compound, 1 part by weight of active compound or active compound combination is mixed with the stated amounts of solvent and emulsifier, and the concentrate is diluted with water to the desired concentration. To test for preventive activity, young plants are sprayed with the preparation of active compound or active compound combination at the stated rate of application. After the spray coating has been dried, the plants are dusted with spores of Blumeria graminis f.sp. hordei.
# Phakopsora pachyrhizi = experiment: Phakopsora test (soybeans)/preventive; conditions: for pest or weed control at 1 ppm: Table D2, application rate 1 ppm a.i.
# Pyrenophora teres = experiment: Pyrenophora teres-test (barley)/preventive; conditions: Table E1
# Experimental: Solvent: 49 parts by weight of N,N-dimethylacetamide
# as §2
# To produce a suitable preparation of active compound, 1 part by weight of active compound or active compound combination is mixed with the stated amounts of solvent and emulsifier, and the concentrate is diluted with water to the desired concentration.
# To test for preventive activity, young plants are sprayed with the preparation of active compound or active compound combination at the stated rate of application.
# After the spray coating has been dried, the plants are sprayed with a spore suspension of Pyrenophora teres. The plants remain for 48 hours in an incubation cabinet at approximately 20° C. and a relative atmospheric humidity of approximately 100%.
# The plants are placed in the greenhouse at a temperature of approximately 20° C. and a relative atmospheric humidity of approximately 80%.
# The test is evaluated 8 days after the inoculation. 0% means an efficacy which corresponds to that of the untreated control, while an efficacy of 100% means that no disease is observed.
# Alternaria solani = experiment: Alternaria test (tomatoes)/preventive
# Experimental: as §1, §2, §3
# To test for preventive activity, young plants are sprayed with the preparation of active compound at the stated rate of application. After the spray coating has dried on, the plants are inoculated with an aqueous spore suspension of Alternaria solani. The plants are then placed in an incubation cabinet at approximately 20° C. and a relative atmospheric humidity of 100%.
# The test is evaluated 3 days after the inoculation. 0% means an efficacy which corresponds to that of the untreated control while an efficacy of 100% means that no disease is observed.
# Venturia inaequalis = experiment: Venturia test (apples)/preventive; conditions: Table I1
# Experimental: (§5) Solvent: 24.5 parts by weight of acetone • 24.5 parts by weight of dimethylacetamide Emulsifier: 1 part by weight of alkylaryl polyglycol ether To produce a suitable preparation of active compound, 1 part by weight of active compound is mixed with the stated amounts of solvent and emulsifier, and the concentrate is diluted with water to the desired concentration. To test for preventive activity, young plants are sprayed with the preparation of active compound at the stated rate of application.
# Leptosphaeria nodorum = Leptosphaeria nodorum test (wheat)/preventive; conditions: Table C1
# Experimental: as §4, with “sprayed” for “dusted”, “a spore suspension” for “spores”, “Leptosphaeria nodorum.” for “Blumeria graminis f.sp. hordei.”
# Septoria tritici = experiment: Septoria tritici-test (wheat)/preventive; conditions: Table F1
# Experimental: as §4, with “sprayed” for “dusted”, “a spore suspension” for “spores”, “Septoria tritici.” for “Blumeria graminis f.sp. hordei.”
# Sphaerotheca fuliginea = experiment: Sphaerotheca test (cucumbers)/preventive; conditions: Table G1
# Experimental: as §5, with “application. After the spray coating has dried on, the plants are inoculated with an aqueous spore suspension of Sphaerotheca fuliginea.” for “application.”
# [2] = Phakopsora pachyrhizi, 168 h, Table D1, application rate 0.5 ppm a.i., read-out: Efficacy in % found
# [3] = Table A1, application rate 0.5 ppm a.i.
# [4] = Table A2, application rate 5 ppm a.i.
# [5] = Phakopsora pachyrhizi, 168 h, read-out: Efficacy in % found
# [6] = Table H1, application rate 0.25 ppm a.i.
# [7] = Table D1, application rate 0.5 ppm a.i.
# [8] = Uromyces appendiculatus, 240 h, Table H2, read-out: Efficacy in % found
molecule,measurement,setting,value
"CO/C=C(/C(=O)OC)c1ccccc1COc1cccc(C(F)(F)F)n1 [3.16, picoxystrobin]",Efficacy in % found,"Uromyces appendiculatus; Table H2, application rate 2.5 ppm a.i.",65%
same,Efficacy in % found,[1]; application rate 40 ppm a.i.,50%
same,Efficacy in % found,"Phakopsora pachyrhizi; Table D1, application rate 0.25 ppm a.i.",8%
same,Efficacy in % found,Pyrenophora teres; application rate 40 ppm a.i.,71%
"CC(C)CC(C)c1sccc1NC(=O)c1cn(C)nc1C(F)(F)F (centres unmarked) [2.21, penthiopyrad]",pest or weed control at 0.25 ppm,"Uromyces appendiculatus; Uromyces appendiculatus, 240 h, Table H1, application rate 0.25 ppm a.i., read-out: Efficacy in % found",30%
same,Efficacy in % found,[1]; application rate 80 ppm a.i.,20%
same,pest or weed control at 0.5 ppm,Phakopsora pachyrhizi; [2],0%
same,Efficacy in % found,Alternaria solani; [3],27%
"CO/C=C(/C(=O)OC)c1ccccc1Oc1cc(Oc2ccccc2C#N)ncn1 [3.3, azoxystrobin]",Efficacy in % found,Venturia inaequalis; application rate 0.5 ppm a.i.,88%
same,Efficacy in % found,"Phakopsora pachyrhizi; Table D3, application rate 0.5 ppm a.i.",68%
same,Efficacy in % found,Pyrenophora teres; application rate 20 ppm a.i.,57%
same,Efficacy in % found,Alternaria solani; [4],35%
"CC(C)c1ccc(Cl)cc1CN(C(=O)c1c(C(F)F)nn(C)c1F)C1CC1 [15.151, N-(5-chloro-2-isopropylbenzyl)-N-cyclopropyl-3-(difluoromethyl)-5-fluoro-1-methyl-1H-pyrazole-4-carboxamide]",Efficacy in % found,[1]; application rate 20 ppm a.i.,20%
same,pest or weed control at 0.5 ppm,Phakopsora pachyrhizi; [2],0%
same,Efficacy in % found,Pyrenophora teres; application rate 20 ppm a.i.,86%
"COC(=O)N(OC)c1ccccc1COc1ccn(-c2ccc(Cl)cc2)n1 [3.17, pyraclostrobin]",Efficacy in % found,Venturia inaequalis; application rate 1 ppm a.i.,23%
same,Efficacy in % found,Leptosphaeria nodorum; application rate 20 ppm a.i.,50%
same,pest or weed control at 0.25 ppm,"Phakopsora pachyrhizi; Phakopsora pachyrhizi, 168 h, Table D1, application rate 0.25 ppm a.i., read-out: Efficacy in % found",0%
same,Efficacy in % found,Septoria tritici; application rate 20 ppm a.i.,0%
same,Efficacy in % found,"Alternaria solani; Table A1, application rate 1 ppm a.i.",28%
"CC1CC(C)(C)c2cccc(NC(=O)c3cn(C)nc3C(F)F)c21 (centres unmarked) [2.32, 3-(difluoromethyl)-1-methyl-N-(1,1,3-trimethyl-2,3-dihydro-1H-inden-4-yl)-1H-pyrazole-4-carboxamide]",Efficacy in % found,Venturia inaequalis; application rate 1 ppm a.i.,39%
same,pest or weed control at 0.25 ppm,"Uromyces appendiculatus; Uromyces appendiculatus, 240 h, read-out: Efficacy in % found",75%
same,Efficacy in % found,[1]; application rate 80 ppm a.i.,20%
same,pest or weed control at 0.5 ppm,Phakopsora pachyrhizi; [5],15%
same,Efficacy in % found,Pyrenophora teres; application rate 80 ppm a.i.,0%
same,Efficacy in % found,Alternaria solani; [3],18%
"Cn1cc(C(=O)Nc2ccc(F)cc2-c2ccc(Cl)c(Cl)c2)c(C(F)F)n1 [2.1, bixafen]",Efficacy in % found,Venturia inaequalis; application rate 1 ppm a.i.,36%
same,Efficacy in % found,Uromyces appendiculatus; [6],30%
same,Efficacy in % found,Phakopsora pachyrhizi; [7],0%
same,Efficacy in % found,Pyrenophora teres; application rate 80 ppm a.i.,86%
same,Efficacy in % found,Alternaria solani; [3],43%
"CC(C)(C)C(O)(CCc1ccc(Cl)cc1)Cn1cncn1 (centres unmarked) [1.47, tebuconazole]",pest or weed control at 1 ppm,Phakopsora pachyrhizi; [5],50%
same,Efficacy in % found,Septoria tritici; application rate 80 ppm a.i.,14%
"CC1(C)CCC(Cc2ccc(Cl)cc2)C1(O)Cn1cncn1 (centres unmarked) [1.30, metconazole]",pest or weed control at 2 ppm,Uromyces appendiculatus; [8],30%
same,Efficacy in % found,Leptosphaeria nodorum; application rate 40 ppm a.i.,30%
"CO/N=C(/C1=NOCCO1)c1ccccc1Oc1ncnc(Oc2ccccc2Cl)c1F [3.12, fluoxastrobin]",Efficacy in % found,Venturia inaequalis; application rate 0.5 ppm a.i.,30%
same,pest or weed control at 0.5 ppm,Uromyces appendiculatus; [8],65%
same,Efficacy in % found,Pyrenophora teres; application rate 20 ppm a.i.,16%
"Cn1cc(C(=O)Nc2ccccc2-c2cc(F)c(F)c(F)c2)c(C(F)F)n1 [2.8, fluxapyroxad]",Efficacy in % found,Uromyces appendiculatus; [6],0%
same,Efficacy in % found,[1]; application rate 40 ppm a.i.,30%
same,Efficacy in % found,Phakopsora pachyrhizi; [7],0%
same,Efficacy in % found,Pyrenophora teres; application rate 80 ppm a.i.,57%
same,Efficacy in % found,Alternaria solani; [3],58%
"O=C(NCCc1ncc(C(F)(F)F)cc1Cl)c1ccccc1C(F)(F)F [2.6, fluopyram]",pest or weed control at 1 ppm,"Uromyces appendiculatus; Uromyces appendiculatus, 240 h, Table H1, application rate 1 ppm a.i., read-out: Efficacy in % found",15%
same,Efficacy in % found,[1]; application rate 40 ppm a.i.,0%
same,pest or weed control at 2 ppm,"Phakopsora pachyrhizi; Phakopsora pachyrhizi, 168 h, Table D1, application rate 2 ppm a.i., read-out: Efficacy in % found",0%
same,Efficacy in % found,Pyrenophora teres; application rate 40 ppm a.i.,57%
same,Efficacy in % found,"Alternaria solani; Table A1, application rate 2 ppm a.i.",34%
"Cn1cc(C(=O)Nc2cccc3c2[C@@H]2CC[C@H]3C2=C(Cl)Cl)c(C(F)F)n1 (racemic) [2.29, benzovindiflupyr]",Efficacy in % found,[1]; application rate 40 ppm a.i.,0%
same,Efficacy in % found,Phakopsora pachyrhizi; [7],8%
same,Efficacy in % found,Pyrenophora teres; application rate 40 ppm a.i.,0%
same,Efficacy in % found,Alternaria solani; [3],40%
"OC(Cc1ccccc1Cl)(Cn1nc[nH]c1=S)C1(Cl)CC1 (centres unmarked) [1.41, prothioconazole]",pest or weed control at 2 ppm,Uromyces appendiculatus; [8],30%
same,Efficacy in % found,Leptosphaeria nodorum; application rate 80 ppm a.i.,30%
same,pest or weed control at 1 ppm,Phakopsora pachyrhizi; [5],60%
"CON=C(C(=O)OC)c1ccccc1CON=C(C)c1cccc(C(F)(F)F)c1 [3.22, trifloxystrobin]",Efficacy in % found,Venturia inaequalis; application rate 0.25 ppm a.i.,66%
same,Efficacy in % found,Leptosphaeria nodorum; application rate 20 ppm a.i.,40%
same,Efficacy in % found,Septoria tritici; application rate 20 ppm a.i.,71%
same,Efficacy in % found,Alternaria solani; [4],45%
"CC(C1CC1)C(O)(Cn1cncn1)c1ccc(Cl)cc1 (centres unmarked) [1.5, cyproconazole]",pest or weed control at 0.5 ppm,Uromyces appendiculatus; [8],50%
same,Efficacy in % found,Septoria tritici; application rate 80 ppm a.i.,0%
same,Efficacy in % found,Sphaerotheca fuliginea; application rate 1.25 ppm a.i.,52%
same,Efficacy in % found,Alternaria solani; [4],23%
chlorothalonil [5.4],Efficacy in % found,Venturia inaequalis; application rate 20 ppm a.i.,68%
same,Efficacy in % found,"Uromyces appendiculatus; Table H3, application rate 20 ppm a.i.",0%
same,Efficacy in % found,Septoria tritici; application rate 160 ppm a.i.,0%
same,Efficacy in % found,Sphaerotheca fuliginea; application rate 20 ppm a.i.,29%
same,Efficacy in % found,"Alternaria solani; Table A3, application rate 20 ppm a.i.",8%
